Results from US20170151215A1, “USE OF ROTIGOTINE FOR TREATING THE RESTLESS LEG SYNDROME” (UCB PHARMA GMBH, priority 2002, published 2017).

What was measured:
[1] = system: patients suffering from moderate to very severe idiopathic Restless Leg Syndrome; assay: placebo-controlled, double-blind, randomized clinical test of rotigotine TTS in Restless Leg Syndrome patients; format: in vivo, human; conditions: for Reduction of the average IRLSSG Value as compared to Placebo Treatment by Day 8: 8 days treatment
Description: The rotigotine TTS produced per one of the above implementation examples was investigated in placebo-controlled, double-blind, randomized clinical tests at several centers, covering in a study with triple-branched parallel groups 63 patients who were suffering from moderate to very severe idiopathic Restless Leg Syndrome conditions.
The average age of the patients was 58.3 years. Randomization in the three treatment groups in terms of gender, age and severity of prior illnesses was reasonably balanced.
Over a treatment period of eight (8) days the patients of one group were treated with 5 cm^2 TTS and the patients of another group were treated with 10 cm^2 TTS. For a comparison the patients in the placebo group were treated with a placebo TTS. Within 24 hours, each of the above-mentioned drug-containing TTS's released 2.25 mg and, respectively, 4.5 mg rotigotine to the patient concerned.
As a result of the prespecified primary effectiveness the activities of daily life and the motoricity had changed, based on the generally accepted rating scale of the International Restless Leg Syndrome Study Group (IRLSSG), from the initial value to that in the concluding treatment evaluation (8th day).
On the basis of 10 questions, the IRLSSG measures and rates the following clinical parameters in Restless Leg patients:
The overall IRLSSG rating is derived from the individual values as follows:
First, an initial starting value is determined for each patient participating in the study. This is done by adding up the individual IRLSSG parameter values as of Day 0, i.e. before the treatment. Over the course of the treatment the IRLSSG values are compared with the starting value and any changes from that starting value are recorded. Finally, the average improvement of the IRLSSG value as of Day 8 over the starting value is determined by calculating the average of all test subjects. The resulting value is called CAS—(complete analysis set) randomized average change from the starting value of the overall IRLSSG rating.
Patients suffering from the Restless Leg Syndrome have been known to display a relatively strong response to placebos, meaning that even when treated with placebos these Restless Leg Syndrome patients show a certain improvement of their IRLSSG values. It is therefore important to compare any effect of the drug treatment with the degree of the IRLSSG improvement obtained through placebo treatment over the same time period. Thus, the final assessment of the improvement takes into account the effect of a placebo treatment during the same time period.

[2] = system: Restless Leg Syndrome (RLS); conditions: cited from earlier work; for effectiveness in RLS / side effects: short-term therapy studies; for side effects: usually in the beginning and as a function of the dosage

## CCCN(CCc1cccs1)[C@H]1CCc2c(O)cccc2C1 [Rotigotine, (-)-5,6,7,8-tetrahydro-6-[propyl [2-(2-thienyl)ethyl]amino]-1-naphtol]
[1]; 5 cm^2 TTS, 2.25 mg rotigotine per 24 hours, p (one side) 0.09
  Reduction of the average IRLSSG Value as compared to Placebo Treatment by Day 8: 3.6
[1]; 10 cm^2 TTS, 4.5 mg rotigotine per 24 hours, p (one side) 0.04
  Reduction of the average IRLSSG Value as compared to Placebo Treatment by Day 8: 6.3
[1]; administered via the TTS
  skin reactions at the point of application: generally very minor
  tolerability: generally well tolerated
[1]; administered via the TTS, listed as rotigotine
  tolerability: well tolerated and safe
[1]; end of the 8-day treatment, both patient groups (5 cm^2 and 10 cm^2 TTS)
  subjective symptoms (tingling, cramps and pain in the legs, restlessness during the night, difficulties falling or remaining asleep): either disappeared or diminished to a tolerable minimum
[1]; patient reports, as a function of the dose administered
  daytime weariness, nausea, dizziness, vomiting, insomnia caused by the treatment: did not or only to a very minimal extent cause
[1]; transdermally administered once daily
  clinical improvement in patients in a moderate to severe stage of Restless Leg Syndrome: distinct clinical improvement

## CCCN1C[C@H](CSC)C[C@@H]2c3cccc4[nH]cc(c34)C[C@H]21 [pergolide]
[2]
  effectiveness in RLS: effective
  side effects: nausea, vomiting, dizziness, hypotension, constipation or insomnia

## CCN(CC)C(=O)N[C@H]1C=C2c3cccc4[nH]cc(c34)C[C@H]2N(C)C1 [lisuride]
[2]
  effectiveness in RLS: effective
  side effects: nausea, vomiting, dizziness, hypotension, constipation or insomnia

## CC(C)C[C@H]1C(=O)N2CCC[C@H]2[C@]2(O)O[C@](NC(=O)[C@@H]3C=C4c5cccc6[nH]c(Br)c(c56)C[C@H]4N(C)C3)(C(C)C)C(=O)N12 [bromocriptine]
[2]
  side effects: nausea, vomiting, dizziness, hypotension, constipation or insomnia

## N[C@@H](Cc1ccc(O)c(O)c1)C(=O)O [L-DOPA, levodopa]
[2]; long-term therapy
  effect on the disorder (RLS): clear mitigation of the disorder

## Clc1cccc(Cl)c1NC1=NCCN1 [clonidine, 2-(2,6-dichloroanilino)-4,5-dihydroimidazol]
[2]; treatment of RLS
  frequency of waking up: no effect
  periodic leg movement during sleep (PLMS): no effect
  quality of sleep: no effect
  soporiferous latency: reduced

## CCCN[C@H]1CCc2nc(N)sc2C1 [pramipexol]
[2]; in vivo
  serious side effect: Attacks of drowsiness
[2]
  effectiveness in RLS: effective
  side effects: nausea, vomiting, dizziness, hypotension, constipation or insomnia

## C=CCN1C[C@H](C(=O)N(CCCN(C)C)C(=O)NCC)C[C@@H]2c3cccc4[nH]cc(c34)C[C@H]21 [cabergolin]
[2]
  effectiveness in RLS: effective
  side effects: nausea, vomiting, dizziness, hypotension, constipation or insomnia

## CC(C)C[C@H]1C(=O)N2CCC[C@H]2[C@]2(O)O[C@](NC(=O)[C@@H]3C[C@@H]4c5cccc6[nH]cc(c56)C[C@H]4N(C)C3)(C(C)C)C(=O)N12 [alpha dihydroergocryptine]
[2]
  effectiveness in RLS: effective
  side effects: nausea, vomiting, dizziness, hypotension, constipation or insomnia

## CCCN(CCC)CCc1cccc2c1CC(=O)N2 [ropinirol]
[2]
  effectiveness in RLS: effective
  side effects: nausea, vomiting, dizziness, hypotension, constipation or insomnia
